Reference: patent publication US10308645B2, “Piperidine oxadiazole and thiadiazole orexin receptor antagonists” (MERCK SHARP & DOHME CORP., priority 2014, dated 2019)

How the values were obtained:
human orexin-2 receptor = human orexin-2 receptor (Homo sapiens (Human), UniProt O43614); experiment: FLIPR Ca2+ Flux Assay, hOX2R; format: cell-based; settings: CHO cells expressing the receptor; agonist Ala-6,12 human orexin-A
Experimental: The utility of the compounds in accordance with the present invention as orexin receptor OX1R and/or OX2R antagonists may be readily determined without undue experimentation by methodology well known in the art, including the “FLIPR Ca^2+ Flux Assay” (Okumura et al., Biochem. Biophys. Res. Comm. 280:976-981, 2001). In a typical experiment the OX1 and OX2 receptor antagonistic activity of the compounds of the present invention was determined in accordance with the following experimental method. For intracellular calcium measurements, Chinese hamster ovary (CHO) cells expressing the rat orexin-1 receptor or the human orexin-2 receptor, are grown in Iscove's modified DMEM containing 2 mM L-glutamine, […], 1% hypoxanthine-thymidine supplement, 100 U/ml penicillin, 100 μg/ml streptomycin and 10% heat-inactivated fetal calf serum (FCS). The cells are seeded at 20,000 cells/well into Becton-Dickinson black 384-well clear bottom sterile plates coated with poly-D-lysine. All reagents were from GIBCO-Invitrogen Corp. The seeded plates are incubated overnight at 37° C. and 5% CO2. Ala-6,12 human orexin-A as the agonist is prepared as a 1 mM stock solution in 1% bovine serum albumin (BSA) and diluted in assay buffer (HBSS containing 20 mM HEPES, 0.1% BSA and 2.5 mM probenecid, pH7.4) for use in the assay at a final concentration of 70 pM. Test compounds are prepared as 10 mM stock solution in DMSO, then diluted in 384-well plates, first in DMSO, then assay buffer. On the day of the assay, cells are washed 3 times with 100 μl assay buffer and then incubated for 60 min (37° C., 5% CO2) in 60 μl assay buffer containing 1 μM Fluo-4AM ester, 0.02% pluronic acid, and 1% BSA. The dye loading solution is then aspirated and cells are washed 3 times with 100 μl assay buffer. 30 μl of that same buffer is left in each well. Within the Fluorescent Imaging Plate Reader (FLIPR, Molecular Devices), test compounds are added to the plate in a volume of 25 μl, incubated for 5 min and finally 25 μl of agonist is added. Fluorescence is measured for each well at 1 second intervals for 5 minutes and the height of each fluorescence peak is compared to the height of the fluorescence peak induced by […] Ala-6,12 orexin-A with buffer in place of antagonist. For each antagonist, IC50 value (the concentration of compound needed to inhibit 50% of the agonist response) is determined. Alternatively, compound potency can be assessed by a radioligand binding assay (described in Bergman et. al. Bioorg. Med. Chem. Lett. 2008, 18, 1425-1430) in which the inhibition constant (Ki) is determined in membranes prepared from CHO cells expressing either the OX1 or OX2 receptor. The intrinsic orexin receptor antagonist activity of a compound which may be used in the present invention may be determined by these assays.

[1] = target: hOX1R (orexin-1 receptor) (Homo sapiens, UniProt O43613); experiment: FLIPR Ca2+ Flux Assay, hOX1R; format: cell-based; settings: CHO cells expressing the receptor; agonist Ala-6,12 human orexin-A

human orexin-2 receptor, sequence (O43614 whole entry): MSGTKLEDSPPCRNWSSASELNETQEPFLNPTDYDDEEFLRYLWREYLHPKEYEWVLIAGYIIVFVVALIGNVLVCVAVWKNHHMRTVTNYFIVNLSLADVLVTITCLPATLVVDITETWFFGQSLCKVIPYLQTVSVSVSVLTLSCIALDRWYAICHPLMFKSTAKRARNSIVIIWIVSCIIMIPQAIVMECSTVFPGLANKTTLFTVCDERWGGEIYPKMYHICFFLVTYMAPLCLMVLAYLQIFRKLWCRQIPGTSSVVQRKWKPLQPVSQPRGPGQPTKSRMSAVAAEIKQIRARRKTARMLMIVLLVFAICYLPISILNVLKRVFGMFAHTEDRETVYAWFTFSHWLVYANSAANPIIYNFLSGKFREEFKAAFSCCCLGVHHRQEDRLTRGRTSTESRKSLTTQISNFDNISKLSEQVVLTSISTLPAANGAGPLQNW

SMILES	IC50 (human orexin-2 receptor) [nM]	IC50 [1] [nM]
C[C@@H]1CC[C@@H](c2noc(C(C)(C)C)n2)CN1C(=O)c1ccccc1-n1nccn1 [Example 2, (2R,5R)-5-(5-tert-butyl-1,2,4-oxadiazol-3-yl)-2-methyl-1-{[2-(2H-1,2,3-triazol-2-yl)phenyl]carbonyl}piperidine]	29	516
CC(C)Oc1ncccc1C(=O)N1C[C@H](c2noc(C(C)(C)O)n2)CC[C@H]1C [Example 17, 2-{3-[(3R,6R)-6-methyl-1-{[2-(1-methylethoxy)pyridin-3-yl]carbonyl}piperidin-3-yl]-1,2,4-oxadiazol-5-yl}propan-2-ol]	219	> 10000
C[C@@H]1CC[C@@H](c2noc(C(C)(C)O)n2)CN1C(=O)c1ccc(F)cc1-n1nccn1 [Example 21, 2-{3-[(3R,6R)-1-{[4-Fluoro-2-(2H-1,2,3-triazol-2-yl)phenyl]carbonyl}-6-methylpiperidin-3-yl]-1,2,4-oxadiazol-5-yl}propan-2-ol]	44	> 10000
C[C@@H]1CC[C@@H](c2noc(C(C)(C)O)n2)CN1C(=O)c1ccccc1-c1ncccn1 [Example 23, 2-(3-{(3R,6R)-6-Methyl-1-[(2-pyrimidin-2-ylphenyl)carbonyl]piperidin-3-yl}-1,2,4-oxadiazol-5-yl)propan-2-ol]	63	> 10000
CC(C)c1noc([C@@H]2CC[C@@H](C)N(C(=O)c3ccccc3-n3nccn3)C2)n1 [Example 26, (2R,5R)-2-methyl-5-[3-(1-methylethyl)-1,2,4-oxadiazol-5-yl]-1-{[2-(2H-1,2,3-triazol-2-yl)phenyl]carbonyl}piperidine]	124	4500
C[C@@H]1CC[C@@H](c2noc([C@](C)(O)C(F)(F)F)n2)CN1C(=O)c1ccccc1-n1nccn1 [Example 6, (2S)-1,1,1-trifluoro-2-{3-[(3R,6R)-6-methyl-1-{[2-(2H-1,2,3-triazol-2-yl)phenyl]carbonyl}piperidin-3-yl]-1,2,4-oxadiazol-5-yl}propan-2-ol]	18	288
C[C@@H]1CC[C@@H](c2noc([C@H](O)C(F)(F)F)n2)CN1C(=O)c1ccccc1-n1nccn1 [Example 7, (1S)-2,2,2-trifluoro-1-{3-[(3R,6R)-6-methyl-1-{[2-(2H-1,2,3-triazol-2-yl)phenyl]carbonyl}piperidin-3-yl]-1,2,4-oxadiazol-5-yl}ethanol]	22	456
CC(C)Oc1ncccc1C(=O)N1C[C@H](c2nsc(C(C)(C)O)n2)CC[C@H]1C [Example 30, 2-{3-[(3R,6R)-6-methyl-1-{[2-(1-methylethoxy)pyridin-3-yl]carbonyl}piperidin-3-yl]-1,2,4-thiadiazol-5-yl}propan-2-ol]	298	> 10000
CCOc1ccccc1C(=O)N1C[C@H](c2nsc(C(C)(C)O)n2)CC[C@H]1C [Example 37, 2-(3-{(3R,6R)-1-[(2-ethoxyphenyl)carbonyl]-6-methylpiperidin-3-yl}-1,2,4-thiadiazol-5-yl)propan-2-ol]	146	> 10000
CCOc1ccccc1C(=O)N1C[C@H](c2noc(C(C)(C)O)n2)CC[C@H]1C [Example 19, 2-(3-{(3R,6R)-1-[(2-ethoxyphenyl)carbonyl]-6-methylpiperidin-3-yl}-1,2,4-oxadiazol-5-yl)propan-2-ol]	124	> 10000
COC(=O)c1ccccc1C(=O)N1C[C@H](c2noc(C(C)(C)O)n2)CC[C@H]1C [Example 20, methyl 2-({(2R,5R)-5-[5-(1-hydroxy-1-methylethyl)-1,2,4-oxadiazol-3-yl]-2-methylpiperidin-1-yl}carbonyl)benzoate]	97	> 10000
CC(C)c1nc([C@@H]2CC[C@@H](C)N(C(=O)c3ccccc3-n3nccn3)C2)no1 [Example 4, (2R,5R)-2-methyl-5-[5-(1-methylethyl)-1,2,4-oxadiazol-3-yl]-1-{[2-(2H-1,2,3-triazol-2-yl)phenyl]carbonyl}piperidine]	28	699
C[C@@H]1CC[C@@H](c2noc(C(C)(C)O)n2)CN1C(=O)c1ccccc1OC(F)F [Example 18, 2-{3-[(3R,6R)-1-{[2-(difluoromethoxy)phenyl]carbonyl}-6-methylpiperidin-3-yl]-1,2,4-oxadiazol-5-yl}propan-2-ol]	140	> 10000
C[C@@H]1CC[C@@H](c2nc(C(C)(C)O)no2)CN1C(=O)c1ccccc1-n1nccn1 [Example 27, 2-{5-[(3R,6R)-6-methyl-1-{[2-(2H-1,2,3-triazol-2-yl)phenyl]carbonyl}piperidin-3-yl]-1,2,4-oxadiazol-3-yl}propan-2-ol]	75	> 10000
C[C@@H]1CC[C@@H](c2nsc(C(C)(C)O)n2)CN1C(=O)c1ccccc1-n1nccn1 [Example 35, 2-{3-[(3R,6R)-6-methyl-1-{[2-(2H-1,2,3-triazol-2-yl)phenyl]carbonyl}piperidin-3-yl]-1,2,4-thiadiazol-5-yl}propan-2-ol]	27	2380
C[C@@H]1CC[C@@H](c2nsc(C(C)(C)O)n2)CN1C(=O)c1ccccc1OC(F)(F)F [Example 39, 2-{3-[(3R,6R)-6-methyl-1-{[2-(trifluoromethoxy)phenyl]carbonyl}piperidin-3-yl]-1,2,4-thiadiazol-5-yl}propan-2-ol]	53	6380
C[C@@H]1CC[C@@H](c2nsc(C(C)(C)O)n2)CN1C(=O)c1ccsc1-c1ncccn1 [Example 40, 2-(3-{(3R,6R)-6-Methyl-1-[(2-pyrimidin-2-ylthiophen-3-yl)carbonyl]piperidin-3-yl}-1,2,4-thiadiazol-5-yl)propan-2-ol]	50	9990
C[C@@H]1CC[C@@H](c2noc(C(C)(C)O)n2)CN1C(=O)c1ccsc1-c1ncccn1 [Example 22, 2-(3-{(3R,6R)-6-methyl-1-[(2-pyrimidin-2-ylthiophen-3-yl)carbonyl]piperidin-3-yl}-1,2,4-oxadiazol-5-yl)propan-2-ol]	61	> 10000
C[C@@H]1CC[C@@H](c2nc(C3CC3)no2)CN1C(=O)c1ccccc1-n1nccn1 [Example 28, (2R,5R)-5-(3-cyclopropyl-1,2,4-oxadiazol-5-yl)-2-methyl-1-{[2-(2H-1,2,3-triazol-2-yl)phenyl]carbonyl}piperidine]	345	> 10000
